Data: paper doi:10.1101/2022.02.21.481260v1 (biorxiv, 2022)

Biological target: T1, hFAP (recombinant human Fibroblast Activation Protein) (Homo sapiens, UniProt Q12884)
T1 sequence (Q12884 26-760 limits assumed): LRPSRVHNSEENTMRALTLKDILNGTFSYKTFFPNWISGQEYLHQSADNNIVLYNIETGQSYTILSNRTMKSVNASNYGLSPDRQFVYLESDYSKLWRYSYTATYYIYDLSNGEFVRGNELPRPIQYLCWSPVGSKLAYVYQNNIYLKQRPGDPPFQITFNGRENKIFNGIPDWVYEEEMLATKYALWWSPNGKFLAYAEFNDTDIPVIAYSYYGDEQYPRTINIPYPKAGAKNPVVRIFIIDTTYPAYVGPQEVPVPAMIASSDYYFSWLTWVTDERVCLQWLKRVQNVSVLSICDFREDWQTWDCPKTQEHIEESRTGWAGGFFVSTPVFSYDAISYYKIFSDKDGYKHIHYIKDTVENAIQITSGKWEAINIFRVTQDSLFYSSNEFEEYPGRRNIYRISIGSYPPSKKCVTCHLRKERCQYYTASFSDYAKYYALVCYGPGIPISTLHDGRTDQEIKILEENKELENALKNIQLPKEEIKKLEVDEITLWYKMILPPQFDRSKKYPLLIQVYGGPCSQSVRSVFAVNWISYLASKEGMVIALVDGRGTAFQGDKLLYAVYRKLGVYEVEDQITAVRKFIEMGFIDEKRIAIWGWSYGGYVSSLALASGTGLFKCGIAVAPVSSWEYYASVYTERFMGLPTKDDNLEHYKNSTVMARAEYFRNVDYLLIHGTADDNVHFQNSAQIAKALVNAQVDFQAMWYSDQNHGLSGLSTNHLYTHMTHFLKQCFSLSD
Assay: biochemical

IC50: 399 pM
SMILES: N#C[C@@H]1CC(F)(F)CN1C(=O)CNC(=O)c1ccnc2c(NC(=O)CCC(=O)NCCNC(=O)CCC(C(=O)O)N3CCN(CC(=O)O)CCN(CC(=O)O)CCN(CC(=O)O)CC3)cccc12 (stereo partly shown) [compound 1, OncoFAP-DOTAGA]
